In EPA's ToxRefDB 2:

Experiments:
rat [1] = conditions: Fertility (Segment I); sprague dawley; Injection; Intravenous; dose end: 20 GD; group: parental; systemic / in life observation / body weight / body weight gain + systemic / in life observation / food consumption / food consumption + …
rabbit = conditions: Prenatal developmental toxicity study, new zealand white, Injection, Intravenous, dose end: 19 GD
rat [2] = conditions: Prenatal developmental toxicity study, sprague dawley, Injection, Intravenous, dose end: 17 GD
[3] = group: developmental, developmental / developmental malformation / heart / enlarged aortic valve
[4] = group: maternal, reproductive / offspring survival early / litter size / litter size
[5] = group: developmental, developmental / developmental malformation / bone / incomplete ossification + developmental / developmental malformation / bone / knobby + …
[6] = group: developmental, developmental / developmental malformation / ureter / convoluted
[7] = group: maternal, systemic / in life observation / body weight / body weight gain
[8] = group: maternal, systemic / in life observation / body weight / body weight gain + systemic / in life observation / food consumption / food consumption

`CCOC(=O)c1ccc(C2CCC(NC[C@H](O)COc3ccc(O)c(NS(C)(=O)=O)c3)CC2)cc1.Cl` (stereo partly drawn) showed an LEL (rat [1]) of 160 mg/kg/day, an LOAEL (rat [1]) of 160 mg/kg/day and an LEL (rabbit; [3]) of 160 mg/kg/day. It also gave an LOAEL (rabbit; [3]) of over 160 mg/kg/day, an NEL (rabbit; [3]) of 80 mg/kg/day and an NOAEL (rabbit; [3]) of at least 160 mg/kg/day. It also gave an LOAEL (rabbit; [4]) of 80 mg/kg/day, an NOAEL (rabbit; [4]) of 40 mg/kg/day and an LEL (rabbit; group: maternal, reproductive / offspring survival early / litter size / litter size + reproductive / reproductive performance / postimplantation loss / …) of 80 mg/kg/day. The NEL (rabbit; group: maternal, reproductive / reproductive performance / postimplantation loss / postimplantation loss + reproductive / reproductive performance / …) was 40 mg/kg/day, the LOAEL (rat [2]; [5]) was 160 mg/kg/day and the NOAEL (rat [2]; [5]) was 40 mg/kg/day. It also gave an LEL (rat [2]; [6]) of 10 mg/kg/day, an NEL (rat [2]; [6]) of under 10 mg/kg/day and an LEL (rat [2]; [7]) of 10 mg/kg/day. For the same compound, the NEL (rat [2]; [7]) was under 10 mg/kg/day, the LOAEL (rat [2]; [8]) was 160 mg/kg/day and the NOAEL (rat [2]; [8]) was 40 mg/kg/day.
